Data on three compounds can be found in US12558430B2, “Dual amylin and calcitonin receptor agonists and uses thereof” (Eli Lilly and Company, priority 2020, dated 2026).

Where two headings read alike, the source gives them in different places. Starred links: 1 amine or outer side, 2 acyl side, 3 side chain; linkers in the order of their positions; H or OH if unused. Non-standard residues stand in square brackets, D forms with d. Residues, ends and D or L forms follow the SMILES beside them. Groups on a side chain read outwards from the residue. *: point of attachment. C20 diacid = O=C(O)CCCCCCCCCCCCCCCCCCC(=O)*; γGlu = O=C(O)[C@H](CCC(=O)[*:2])N[*:1]; AEEA = NCCOCCOCC(=O)O; Aib = CC(C)(N)C(=O)O

One data set concerns the target human AMY1 receptor (Homo sapiens, UniProt O60894+P30988). Kind of data set: hAMY1 cAMP functional assay (HTRF). The data set is classed as cell-based. How it is done: The AMY1 and CT receptors are GPCRs that are functionally coupled to Gαs proteins. Stimulation of these receptors results in an increased production of intracellular cAMP, which can be detected using standard in vitro technologies. Human AMY1 or CT receptors are stably expressed in human urinary bladder cells (UM-UC-3) cells under control of a pcDNA (CALCR) or pCMV piggybac (RAMP1) expression vector. AMY1 cells are cultured in MEM 1X (Corning) supplemented with 10% FBS, 1% antibiotic/antimycotic solution, 1 mM sodium pyruvate, 1X MEM NEAA, 1X GlutaMAX-I, 200 μg/mL hygromycin B, and 0.4 μg/mL puromycin. CT cells are cultured in the same medium except that it lacks the puromycin. Cultured cells are grown to 70% confluency, and then incubated overnight with fresh medium.
On the assay day, 10 μL of assay buffer (phenol red free MEM (Corning, cat #17-305-CV), 0.1% casein, 0.5 mM IBMX, 5 mM HEPES, pH 7.4) is dispensed into each well of white poly-D-lysine coated 384-well plates (Corning cat #354661). […]
The amount of intracellular cAMP is quantitated using HTRF technology (Homogeneous Time Resolved Fluorescence; Cisbio) as per vendor instructions. […] The HTRF signal is immediately detected using an Envision plate reader (Perkin-Elmer) to calculate the ratio of fluorescence at 665 to 620 nm. […]

For the next data set, the target named is T1, human CT receptor (Homo sapiens, UniProt P30988).
T1 sequence (P30988 25-474): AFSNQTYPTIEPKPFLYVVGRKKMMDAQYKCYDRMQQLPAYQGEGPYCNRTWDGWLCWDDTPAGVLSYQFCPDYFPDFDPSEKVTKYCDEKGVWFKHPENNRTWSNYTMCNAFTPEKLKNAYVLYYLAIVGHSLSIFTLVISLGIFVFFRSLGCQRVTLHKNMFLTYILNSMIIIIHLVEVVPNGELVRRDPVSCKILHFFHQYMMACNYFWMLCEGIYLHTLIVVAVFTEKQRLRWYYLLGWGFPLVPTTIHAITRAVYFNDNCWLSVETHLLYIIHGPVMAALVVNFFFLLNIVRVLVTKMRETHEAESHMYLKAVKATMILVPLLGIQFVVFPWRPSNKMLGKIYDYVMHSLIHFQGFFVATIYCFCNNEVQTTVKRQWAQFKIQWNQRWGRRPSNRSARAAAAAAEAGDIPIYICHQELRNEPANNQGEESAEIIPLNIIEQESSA
Nature of the data set: hCT cAMP functional assay (HTRF). The data set is classed as cell-based.

For data set [1] the following is noted: background statement; cited from earlier work.
Data set [2] can be described thus: Monkey pharmacokinetics, single subcutaneous dose. The data set is classed as in vivo. To be noted: cynomolgus monkey, plasma, sc, 20 nmol/kg, single 20 nmol/kg SC. As for the experimental part:
(§1) Plasma concentration of Compound II is determined by a qualified Liquid Chromatography Mass Spectrometry (LC/MS) method at Q Squared Solutions BioSciences LLC, Ithaca, N.Y. Compound II and an analog as an internal standard are extracted from 100% species-specific plasma using protein precipitation followed by solid phase extraction. The intact mass of Compound II which includes peptide plus acyl chain is detected by a Q-Exactive Orbitrap™ mass spectrometer.
In a monkey pharmacokinetics study, male and female Cynomolgus monkeys are administered a single subcutaneous dose of 20 nmol/kg (0.084 mg/kg) of Compound II in Tris-mannitol buffer (pH 8.0) at a volume of 0.2 mL/kg. Blood is collected predose and at 1, 3, 6, 12, 24, 48, 72, 96, 120, 144, 168, 240, 336, 408, 504 hours postdose for pharmacokinetic characterization.

Data set [3] in a line: Rat pharmacokinetics, single subcutaneous dose. The data set is classed as in vivo. As to conditions: male, Sprague Dawley, plasma, sc, 20 nmol/kg, single 20 nmol/kg SC. As for the experimental part: as §1
In a rat pharmacokinetic study, male Sprague Dawley rats are administered a single subcutaneous dose of 20 nmol/kg (0.084 mg/kg) of Compound II in Tris-mannitol buffer (pH 8.0) at a volume of 0.2 mL/kg. Blood is collected at 1-, 3-, 6-, 12-, 24-, 48-, 72-, 96-, 120-, and 144-hours post-dose for pharmacokinetic characterization.

Data set [4] deals with Primary human dendritic cells.

Sequence of human AMY1 receptor (O60894 27-148, one chain of several): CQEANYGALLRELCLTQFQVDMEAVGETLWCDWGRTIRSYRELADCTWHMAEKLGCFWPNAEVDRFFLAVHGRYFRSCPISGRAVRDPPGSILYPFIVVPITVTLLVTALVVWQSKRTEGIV
Description for CD4+ T cells: Cryopreserved PBMCs were used from ten healthy donors and the CD8+ T cells were depleted from the PBMCs and labeled with 1 μM Carboxyfluorescein Diacetate Succinimidyl Ester (CFSE). […] Cells were cultured and incubated for 7 days at 37° C. with 5% CO2. On day 7, samples were stained with the following cell surface markers: anti-CD3, anti-CD4, anti-CD14, anti-CD19, and DAPI for viability detection by flow cytometry using a BD LSRFortessa™, equipped with a High Throughput Sampler (HTS). Data was analyzed using FlowJo® Software (FlowJo, LLC, TreeStar) and a Cellular Division Index (CDI) was calculated. Briefly, the CDI for each test candidate's MAPPs-derived peptide cluster was calculated by dividing the percent of proliferating CFSE^dimCD4+ T cells from peptide-stimulated wells by the percent of proliferating CFSE^dimCD4+ T cells in the unstimulated wells. A CDI of ≥2.5 was considered to represent a positive response. A percent donor frequency across all donors was evaluated.
Description for human CT receptor: The AMY1 and CT receptors are GPCRs that are functionally coupled to Gαs proteins. […] Human AMY1 or CT receptors are stably expressed in human urinary bladder cells (UM-UC-3) cells under control of a pcDNA (CALCR) or pCMV piggybac (RAMP1) expression vector. AMY1 cells are cultured in MEM 1X (Corning) supplemented with 10% FBS, 1% antibiotic/antimycotic solution, 1 mM sodium pyruvate, 1X MEM NEAA, 1X GlutaMAX-I, 200 μg/mL hygromycin B, and 0.4 μg/mL puromycin. CT cells are cultured in the same medium except that it lacks the puromycin. Cultured cells are grown to 70% confluency, and then incubated overnight with fresh medium.
Peptides diluted in DMSO are added (200 nL/well) in a 1:3 dilution series using ECHO acoustic liquid handler (Beckman). Cultured cells are detached with TrypLE Express (Gibco), resuspended in assay buffer, and 10 μL containing 1200 cells/well (hCT) or 1500 cells/well (hAMY1) are dispensed into each well. The plates are incubated at room temperature for 1 hour.
The amount of intracellular cAMP is quantitated using HTRF technology (Homogeneous Time Resolved Fluorescence; Cisbio) as per vendor instructions. Briefly, 10 μL cAMP-d2 conjugate and 10 μL anti-cAMP-cryptate conjugate in lysis buffer are incubated with the treated cells at room temperature for 60 min. […]

As for `CC(=O)N[C@@H](C)C(=O)N[C@@H](CO)C(=O)N[C@@H](Cc1c[nH]cn1)C(=O)N[C@@H](CC(C)C)C(=O)N[C@@H](CO)C(=O)N[C@H](C(=O)N[C@@H](C)C(=O)N[C@H](C(=O)N[C@@H](CC(C)C)C(=O)NCC(=O)N[C@@H](CCCCN)C(=O)N[C@@H](CC(C)C)C(=O)N[C@@H](CO)C(=O)NC(C)(C)C(=O)N[C@@H](CCC(=O)O)C(=O)N[C@@H](CC(C)C)C(=O)N[C@@H](Cc1c[nH]cn1)C(=O)N[C@@H](CCCCN)C(=O)N[C@@H](CC(C)C)C(=O)N[C@@H](CCC(=O)O)C(=O)N[C@@H](CC(=O)O)C(=O)N[C@@H](Cc1ccc(O)cc1)C(=O)N1CCC[C@H]1C(=O)N[C@@H](CCCNC(=N)N)C(=O)N[C@H](C(=O)N[C@@H](CC(=O)O)C(=O)N[C@H](C(=O)NCC(=O)N[C@@H](C)C(=O)N[C@@H](CCC(=O)O)C(=O)N[C@@H](CO)C(=O)N1CCC[C@H]1C(N)=O)C(C)C)[C@@H](C)O)C(C)C)[C@@H](C)O` [Compound I] (Ac-ASHLSTAVLGKLS[Aib]ELHKLEDYPRTDVGAESP-NH2), the EC50 worked out at 0.0493 ± 0.00804 nM at human AMY1 receptor and 0.0317 ± 0.0058 nM at human CT receptor.

Take Salmon calcitonin: the half-life entry in data set [1] was “less than two hours”.

Take `CC(=O)N[C@@H](C)C(=O)N[C@@H](CO)C(=O)N[C@@H](Cc1c[nH]cn1)C(=O)N[C@@H](CC(C)C)C(=O)N[C@@H](CO)C(=O)N[C@H](C(=O)N[C@@H](C)C(=O)N[C@H](C(=O)N[C@@H](CC(C)C)C(=O)NCC(=O)N[C@@H](CCCCNC(=O)COCCOCCNC(=O)COCCOCCNC(=O)CC[C@H](NC(=O)CCCCCCCCCCCCCCCCCCC(=O)O)C(=O)O)C(=O)N[C@@H](CC(C)C)C(=O)N[C@@H](CO)C(=O)NC(C)(C)C(=O)N[C@@H](CCC(=O)O)C(=O)N[C@@H](CC(C)C)C(=O)N[C@@H](Cc1c[nH]cn1)C(=O)N[C@@H](CCCCN)C(=O)N[C@@H](CC(C)C)C(=O)N[C@@H](CCC(=O)O)C(=O)N[C@@H](CC(=O)O)C(=O)N[C@@H](Cc1ccc(O)cc1)C(=O)N1CCC[C@H]1C(=O)N[C@@H](CCCNC(=N)N)C(=O)N[C@H](C(=O)N[C@@H](CC(=O)O)C(=O)N[C@H](C(=O)NCC(=O)N[C@@H](C)C(=O)N[C@@H](CCC(=O)O)C(=O)N[C@@H](CO)C(=O)N1CCC[C@H]1C(N)=O)C(C)C)[C@@H](C)O)C(C)C)[C@@H](C)O` [Compound II] (Ac-ASHLSTAVLGK([AEEA-AEEA-γGlu-C20 diacid])LS[Aib]ELHKLEDYPRTDVGAESP-NH2): a half-maximal response on human AMY1 receptor (EC50) required 0.0494 ± 0.00514 nM. For the same compound, the EC50 on human CT receptor was 0.0409 ± 0.0147 nM. For the same compound, in data set [2] (both sexes, Mean), the AUC(0-inf) turned out to be 47.5 µM·h, the CL/F is 0.42 mL/h/kg, the peak level (Cmax) was 168 nM and the Tmax was 42 h. For the same compound, in data set [2] (both sexes, Mean), the half-life was 178 h. In data set [2] (animal P0001), the AUC(0-inf) is 50.4 µM·h, the CL/F was 0.4 mL/h/kg, the Cmax came out at 198 nM and the Tmax is 12 h. This compound also showed a half-life in data set [2] (animal P0001) of 185 h. Also, in data set [2] (animal P0101), the area under the curve AUC(0-inf) was 44.7 µM·h, the apparent clearance (CL/F) was 0.45 mL/h/kg, the Cmax is 138 nM and the time to peak (Tmax) worked out at 72 h. In data set [2] (animal P0101), the half-life was 170 h. In addition, in data set [3] (Mean), the AUC(0-inf) was 8.59 µM·h, the CL/F was 2.33 mL/h/kg, the Cmax was 90 nM and the Tmax came to 24 h. The compound further gave a half-life in data set [3] (Mean) of 58 h. For the same compound, in data set [3] (animal R0001), the area under the curve AUC(0-inf) came to 8.41 µM·h, the CL/F was 2.38 mL/h/kg, the Cmax worked out at 88 nM and the Tmax stood at 48 h. This compound gave a half-life in data set [3] (animal R0001) of 47 h. Besides, in data set [3] (animal R0002), the AUC(0-inf) was found to be 8.7 µM·h, the CL/F was 2.3 mL/h/kg, the Cmax worked out at 81 nM and the Tmax came out at 12 h. Moreover, the half-life in data set [3] (animal R0002) was 60 h. Also, in data set [3] (animal R0003), the AUC(0-inf) was 8.65 µM·h, the CL/F is 2.31 mL/h/kg, the Cmax is 99 nM and the Tmax came out at 12 h. The half-life in data set [3] (animal R0003) is 67 h. Besides, in data set [4], the “# of clusters” value was determined as 0, the “% Donors (displaying non-germline residues)” value was 0% and the “immunogenicity risk (MAPPs)” value was “low level of immunogenicity risk”. In the data set on CD4+ T cells, the “% Positive Donors” value is 12.5%, the “CDI Range High” value was determined as 19.7, the “CDI Range Low” value amounted to 0.7 and the “Median CDI (All donors)” value is on record as 1.0. For the same compound, in the data set with CD4+ T cells, the “Median CDI (Positive Donors)” value was 19.7, the “Number of donors (positive/tested)” value is recorded as 1/8 and the “immunogenicity risk (T cell proliferation)” value is “low level of immunogenicity risk”.
